These results are taken from patent US20220324835A1 (Nurix Therapeutics, Inc., priority 2018, published 2022).

SMILES strings stand for the structures.

This test relates to T-cell. Nature of the test: CD25 cell surface staining on T-cells stimulated with anti-CD3 antibody alone (Biological Example 2). To be noted: primary human total T-cells, baseline = anti-CD3/anti-CD28 stimulated cells without inhibitor, read-out: CD25 staining, Anti-CD3 stimulation, fold change over baseline; for fold induction at 1 µM: 1 μM compound; for fold induction at 8 µM: 8 μM compound. Type of test: cell-based.

As to `Cc1n[nH]c(C)c1-c1cc2c(c(C(F)(F)F)c1)CN(c1cccc(C3(Cc4nncn4C)COC3)c1)C2=O` [Compound 385, 6-(3,5-dimethyl-1H-pyrazol-4-yl)-2-(3-{3-[(4-methyl-4H-1,2,4-triazol-3-yl)methyl]oxetan-3-yl}phenyl)-4-(trifluoromethyl)-2,3-dihydro-1H-isoindol-1-one], the fold induction at 1 µM is greater than 1 and the fold induction at 8 µM was greater than 1.

Regarding `C[C@H](Cc1nncn1C)c1cccc(N2Cc3c(cc(CN4CC(O)C4)cc3C(F)(F)F)C2=O)c1` [Compound 393, (R)-6-((3-hydroxyazetidin-1-yl)methyl)-2-(3-(1-(4-methyl-4H-1,2,4-triazol-3-yl)propan-2-yl)phenyl)-4-(trifluoromethyl)isoindolin-1-one], the fold induction at 1 µM is greater than 1 and the fold induction at 8 µM is greater than 1.

For `C[C@H](Cc1nncn1C)c1cccc(N2Cc3c(cc(CN4CC(C)(O)C4)cc3C(F)(F)F)C2=O)c1` [Compound 397], the fold induction at 1 µM is greater than 1 and the fold induction at 8 µM is greater than 1.

Take `C[C@H](Cc1nncn1C)c1cccc(N2Cc3c(cc(CN4CC[C@](C)(O)C4)cc3C(F)(F)F)C2=O)c1` [Compound 398, 6-(((S)-3-hydroxy-3-methylpyrrolidin-1-yl)methyl)-2-(3-((R)-1-(4-methyl-4H-1,2,4-triazol-3-yl)propan-2-yl)phenyl)-4-(trifluoromethyl)isoindolin-1-one]: the fold induction at 1 µM was greater than 1 and the fold induction at 8 µM is greater than 1.

Consider `C[C@H](Cc1nncn1C)c1cccc(N2Cc3c(cc(CN4CC[C@H](F)C4)cc3C(F)(F)F)C2=O)c1` [Compound 399, 6-(((S)-3-fluoropyrrolidin-1-yl)methyl)-2-(3-((R)-1-(4-methyl-4H-1,2,4-triazol-3-yl)propan-2-yl)phenyl)-4-(trifluoromethyl)isoindolin-1-one], for which the fold induction at 1 µM was greater than 1 and the fold induction at 8 µM is greater than 1.

Consider `Cn1cnnc1CC1(c2cccc(N3Cc4c(cc(CN5CC[C@H](C#N)C5)cc4C(F)(F)F)C3=O)c2)COC1` [Compound 422, (S)-1-((2-(3-(3-((4-methyl-4H-1,2,4-triazol-3-yl)methyl)oxetan-3-yl)phenyl)-3-oxo-7-(trifluoromethyl)isoindolin-5-yl)methyl)pyrrolidine-3-carbonitrile], for which the fold induction at 1 µM is greater than 1 and the fold induction at 8 µM was greater than 1.

`Cn1cnnc1C(F)(F)[C@](C)(F)c1cccc(N2Cc3c(cc(C(=O)N4CC[C@H](O)C4)cc3C(F)(F)F)C2=O)c1` [Compound 438, 6-((S)-3-hydroxypyrrolidine-1-carbonyl)-2-(3-((R)-1,1,2-trifluoro-1-(4-methyl-4H-1,2,4-triazol-3-yl)propan-2-yl)phenyl)-4-(trifluoromethyl)isoindolin-1-one]: the fold induction at 1 µM is 0.801 to 1 and the fold induction at 8 µM was greater than 1.

For `Cn1cnnc1C(F)(F)[C@](C)(F)c1cccc(N2Cc3c(cc(N4CCNCC4)cc3C(F)(F)F)C2=O)c1` [Compound 442, (R)-6-(Piperazin-1-yl)-2-(3-(1,1,2-trifluoro-1-(4-methyl-4H-1,2,4-triazol-3-yl)propan-2-yl)phenyl)-4-(trifluoromethyl)isoindolin-1-one], the fold induction at 1 µM was greater than 1 and the fold induction at 8 µM lay within 0.801 to 1.

As to `Cn1cnnc1C(F)(F)[C@](C)(F)c1cccc(N2Cc3c(cc(CN4CC[C@@H](F)C4)cc3C(F)(F)F)C2=O)c1` [Compound 450], the fold induction at 1 µM was greater than 1 and the fold induction at 8 µM is greater than 1.

Consider `COC1CN(Cc2cc3c(c(C(F)(F)F)c2)CN(c2cccc([C@@](C)(F)C(F)(F)c4nncn4C)c2)C3=O)C1` [Compound 452, (R)-6-((3-methoxyazetidin-1-yl)methyl)-2-(3-(1,1,2-trifluoro-1-(4-methyl-4H-1,2,4-triazol-3-yl)propan-2-yl)phenyl)-4-(trifluoromethyl)isoindolin-1-one], for which the fold induction at 1 µM is greater than 1 and the fold induction at 8 µM was greater than 1.

`Cn1cnnc1C(F)(F)[C@](C)(F)c1cccc(N2Cc3c(cc(CN4CC[C@@H](C#N)C4)cc3C(F)(F)F)C2=O)c1` [Compound 455, (R)-1-((3-oxo-2-(3-((R)-1,1,2-trifluoro-1-(4-methyl-4H-1,2,4-triazol-3-yl)propan-2-yl)phenyl)-7-(trifluoromethyl)isoindolin-5-yl)methyl)pyrrolidine-3-carbonitrile]: the fold induction at 1 µM was in the range of 0.801 to 1 and the fold induction at 8 µM was greater than 1.

Regarding `C[C@H](Cc1nncn1C)c1cccc(NC(=O)c2cc3cc(N4CCNCC4)ccc3cn2)c1` [Compound 472, N-{3-[(2R)-1-(4-methyl-4H-1,2,4-triazol-3-yl)propan-2-yl]phenyl}-6-(piperazin-1-yl)isoquinoline-3-carboxamide], the fold induction at 1 µM lay within 0.801 to 1 and the fold induction at 8 µM lay in the range of 0.801 to 1.
